According to paper PMC12856972 (Clinical Pharmacology in Drug Development, 2025):

Columns and labels:
[1] = Plasma PK, single ascending dose trial BNC210.001; assay type: in vivo, human; conditions: suspension, fasted
[2] = Urinary excretion of unchanged drug, trial BNC210.001; assay type: in vivo, human; conditions: suspension, fasted
[3] = Plasma PK, food effect SAD trial BNC210.002; assay type: in vivo, human; conditions: suspension
[4] = Plasma PK, multiple ascending dose trial BNC210.005; assay type: in vivo, human
[5] = Plasma PK, suspension vs 150 mg tablet cross-over trial BNC210.009; assay type: in vivo, human; conditions: 300 mg tablet
[6] = Plasma PK, SAD trial BNC210.010; assay type: in vivo, human; conditions: 150 mg‐strength tablet, fasted, up to 1200 mg
[7] = Plasma PK, 7-day trial BNC210.011; assay type: in vivo, human
[8] = target: α7 nAChR (Homo sapiens, UniProt P36544); test: Nicotine shift assay, qEEG α2 band; assay type: in vivo; conditions: 1,000 mg BID; particularly with 2 mg nicotine
α7 nAChR, sequence (P36544 23-502): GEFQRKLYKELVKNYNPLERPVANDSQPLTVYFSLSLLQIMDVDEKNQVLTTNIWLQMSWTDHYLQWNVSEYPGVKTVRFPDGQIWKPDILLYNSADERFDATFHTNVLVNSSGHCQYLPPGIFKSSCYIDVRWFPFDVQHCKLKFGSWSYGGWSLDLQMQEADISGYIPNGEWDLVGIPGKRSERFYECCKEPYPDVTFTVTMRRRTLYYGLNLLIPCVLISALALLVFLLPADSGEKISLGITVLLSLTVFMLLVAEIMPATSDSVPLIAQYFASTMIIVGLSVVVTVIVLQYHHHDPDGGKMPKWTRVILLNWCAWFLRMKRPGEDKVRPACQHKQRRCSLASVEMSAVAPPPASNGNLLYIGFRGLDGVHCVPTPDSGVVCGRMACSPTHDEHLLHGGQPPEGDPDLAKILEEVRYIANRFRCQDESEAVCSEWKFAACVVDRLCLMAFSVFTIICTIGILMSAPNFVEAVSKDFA

[9] = test system: healthy volunteers; test: PEPSY psychometric test battery; assay type: in vivo, human; conditions: up to 1000 mg BID for 8 days; Day 1 and Day 8
[10] = test system: healthy volunteers; test: CCK‐4 induced panic model; assay type: in vivo, human; conditions: 2000 mg
[11] = test system: healthy volunteers; test: Safety and tolerability, Phase 1 trials; assay type: in vivo, human
[12] = test system: healthy volunteers; conditions: in vivo
[13] = test system: mouse and rat behavioral models of anxiety and stress‐related disorders; conditions: cited from earlier work
[14] = test system: patients with GAD; conditions: cited from earlier work
[15] = test system: social anxiety disorder patients; conditions: as‐needed acute dosing, NCT05193409; cited from earlier work
[16] = test system: patients with PTSD; conditions: 12‐week; cited from earlier work
[17] = suspension taken with food, out‐patient, NCT02933606; cited from earlier work
[18] = test system: healthy volunteers; test: ARCI 49 abuse liability checklist
[19] = test system: healthy volunteers; test: Peak Saccadic Velocity
[20] = test system: healthy volunteers; test: Quantitative EEG profiling
[21] = test system: healthy volunteers; test: Karolinska Sleepiness Scale
[22] = test system: healthy volunteers; test: Neuroendocrine biomarkers serum cortisol and ACTH; conditions: Phase 1 trials
[23] = test system: healthy volunteers; test: Digit Symbol Substitution Test
[24] = test system: healthy volunteers; test: Subjective feelings on VAS
[25] = Phase 1 trials in healthy volunteers, N = 173

CCn1cc(C(=O)N2CCOCC2)c(=O)c2cc(NC3Cc4ccccc4C3)cnc21 [BNC210]
Change in exposure with dose ([1]; beyond 600 mg): no appreciable further increase in exposure
Dose proportionality of AUC and Cmax ([1]; dose levels up to 50 mg): increased approximately dose proportionately
Drug excreted unchanged in the urine ([2]; single 5 mg): 13.6 % of the dose administered
Drug excreted unchanged in the urine ([2]; single 2000 mg): 0.6 % of the dose administered
Increase in AUC with food ([3]; 300 mg, fed vs fasted): 3.5 fold
Increase in Cmax with food ([3]; 300 mg, fed vs fasted): more than doubling
Increase in AUC at 2000 mg over 1200 mg ([3]; fed): 15%
Dose proportionality of exposure ([3]; fed, 600 and 1200 mg): approximately dose‐proportional
Dose proportionality of exposures ([4]; suspension BID, increasing dose levels): less than dose‐proportional
Mean steady state AUC0–12 ([4]; suspension, 1000 mg BID (2000 mg/day)): 24900 ng·h/mL
Day steady state achieved ([4]; suspension, 150 and 300 mg BID): 2 days
Day steady state achieved ([4]; suspension, 600 and 1000 mg BID): 6 days
Tmax ([5]; fasted): 2 h
Tmax ([5]; fed): 4 h
Dose proportionality of Cmax and AUC [6]: increased proportionally with dose
Day from which steady state achieved ([7]; 225 mg‐strength tablet, 900 mg BID): 3 days
Steady state AUC0‐12, tablet 900 mg BID vs suspension 1000 mg BID ([7]; in vivo): double
Extent of inhibition of nicotine‐induced α2 band response [8]: partial
Cognition, PEPSY test battery [9]: no overall consistent effect on cognition
eVAS emotional stability vs placebo ([10]; 5 min post CCK‐4 injection, P = 0.104): trend
PSS Sum Intensity score vs placebo ([10]; 10 min post CCK‐4 injection, 15 evaluable responders, P < 0.041): significant reduction
PSS Total Symptom score vs placebo ([10]; 10 min post CCK‐4 injection, 15 evaluable responders, P < 0.048): significant reduction
TEAE Fatigue [11, 25]: 7 (4.1) n (%)
TEAE Headache [11, 25]: 35 (20.2) n (%)
TEAE Nausea [11, 25]: 8 (4.6) n (%)
TEAE Somnolence [11, 25]: 16 (9.3) n (%)
Dose relationship of CNS TEAEs (headache, somnolence, nausea, fatigue) ([11]; SAD and MAD trials): did not suggest a dose relationship
Serious adverse events ([11]; eight Phase 1 trials): no serious adverse events were reported
Maximum tolerated dose ([11]; up to 2000 mg suspension and 1200 mg tablet): No maximum tolerated dose was found
Total reaction time vs placebo [12]: no increases in total reaction time
Activity in behavioral models of anxiety and stress‐related disorders ([13]; broad therapeutic dosage range): effective
Side effects in rodent models ([13]; preclinical pharmacology and toxicology studies): did not elicit sedation, memory or motor impairment, or physical dependence
Threat avoidance behavior and self‐reported anxiety [14]: significantly reduced
Anxiety levels vs placebo [15]: improvements in anxiety levels
PTSD total symptom severity scores, depression, insomnia vs placebo [16]: effective at significantly reducing
Plasma levels, population PK analysis [17]: appreciably lower than expected
ARCI 49 checklist ([18]; trials BNC210.003, BNC210.004, BNC210.005): No clinically significant feelings associated with any classes of drugs of abuse
Peak saccadic velocity vs placebo ([19]; 300 and 2000 mg): did not show any significant effect
qEEG alpha power ([20]; 300 mg dose only): small decrease in alpha power
qEEG delta activity vs placebo ([20]; 300 and 2000 mg): increased delta EEG activity in the resting condition, but not the Vigilance‐Controlled condition
qEEG delta power ([20]; 300 and 2000 mg): some increase in delta power in the Resting condition only
Overlap of EEG profile with lorazepam ([20]; in vivo): little overlap in EEG profiles
qEEG beta‐3 ([20]; in vivo): only a slight increase
Karolinska Sleepiness Scale vs placebo ([21]; 300 and 2000 mg): no increase in sleepiness
Effect on serum cortisol or ACTH [22]: No consistent effects
Digit Symbol Substitution Test vs placebo ([23]; 300 mg, 6‐h P < 0.05): no effects with 300 mg, except at the 6‐h time point only
Digit Symbol Substitution Test vs placebo ([23]; 2000 mg): no effects at any time point
Subjective feelings on VAS (16‐item Bond and Lader or eVAS) ([24]; trials BNC210.001, .002, .003, .005, basal state): No effects on subjective feelings

O=C1Nc2ccc(Cl)cc2C(c2ccccc2Cl)=NC1O (stereo not shown) [lorazepam, reference compound]
Total reaction time vs placebo [12]: significantly higher
ARCI 49 benzedrine subscale vs placebo ([18]; 2 mg, P = 0.056): tended to score lower
Peak saccadic velocity (mean maximum) vs placebo ([19]; 2 mg, 6, 9, and 12 h (P < 0.001)): significantly slower
qEEG delta activity vs placebo ([20]; 2 mg): increased delta activity during both the Resting and Vigilance‐Controlled conditions
Karolinska Sleepiness Scale vs placebo ([21]; 2 mg, 6‐h (P < 0.001), 9‐h (P < 0.05)): significant increase in the feeling of sleepiness
Digit Symbol Substitution Test vs placebo ([23]; 2 mg, 6‐h (P < 0.001), 9‐hour (P < 0.05)): significant effect
eVAS mood vs placebo ([24]; 2 mg, trial BNC210.003, 6 h time point, P < 0.05): mood‐lowering effect
